According to patent US9856279B2 (AGIOS PHARMACEUTICALS, INC, priority 2011, dated 2018):

Tests used:
U87MG cells = test: Cellular assay for IDH1m inhibitors: inhibition of 2-HG production (LC-MS, 48 hours) in U87MG cells; format: cell-based; conditions: Homo sapiens, U-87 MG, inhibition of 2-HG production, U87R132H cells; read-out: U87R132H IC50
Procedure, shortened: (§1)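 Read-out: 2-HG in culture medium by LC-MS after 48 h compound exposure; IC50 = 50% reduction vs DMSO control. Cells plated 5000/well in DMEM/10% FBS, 37 °C, 5% CO2; DMSO 0.2% final.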

IDH1 R132H = IDH1 R132H (Homo sapiens, UniProt O75874, R132H); test: Assay for IDH1 R132H inhibitors (NADPH/aKG, resazurin detection); format: biochemical; conditions: enzyme assay of Example 12; read-out: IDH1R132H IC50
Procedure, shortened: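 Compound added to substrate mix (8 uM NADPH, 2 mM aKG), then enzyme mix (0.2 μg/ml IDH1 R132H); 50 min RT in 20 mM Tris pH 7.5, 150 mM NaCl, 10 mM MgCl2, 0.03% BSA. Resazurin detection mix (30 μM) 5 min RT; resorufin fluorescence Ex544/Em590.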

HT1080 cells = test: Cellular assay for IDH1m inhibitors: inhibition of 2-HG production (LC-MS, 48 hours) in HT1080 cells; format: cell-based; conditions: Homo sapiens, HT-1080; inhibition of 2-HG production, HT1080 cells; read-out: HT1080 IC50
Procedure, shortened: as §1

IDH1 R132H, sequence (O75874 whole entry R132H): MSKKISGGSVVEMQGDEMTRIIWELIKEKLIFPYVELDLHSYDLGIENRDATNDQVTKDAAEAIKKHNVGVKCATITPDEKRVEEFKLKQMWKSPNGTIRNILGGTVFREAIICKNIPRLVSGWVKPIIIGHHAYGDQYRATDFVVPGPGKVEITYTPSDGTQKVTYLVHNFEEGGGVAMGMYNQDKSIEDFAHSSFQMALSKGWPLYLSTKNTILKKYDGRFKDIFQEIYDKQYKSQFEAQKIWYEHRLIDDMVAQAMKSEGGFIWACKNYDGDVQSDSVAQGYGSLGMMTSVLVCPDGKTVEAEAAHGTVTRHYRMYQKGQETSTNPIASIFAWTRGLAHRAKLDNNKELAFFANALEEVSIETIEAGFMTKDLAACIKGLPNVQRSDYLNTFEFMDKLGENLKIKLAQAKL

Row | IC50 (U87MG cells) [nM] | IC50 (IDH1 R132H) [nM] | IC50 (HT1080 cells) [nM] | Structure (SMILES)
1 | < 500 | < 500 | < 500 | C=Cc1cnc2c(-c3cc(C#N)c(N4CCN(C(=O)CCOC)[C@H](C5CC5)C4)nc3C3CC3)cccc2n1 [Compound 644, (R)-6-cyclopropyl-2-(3-cyclopropyl-4-(3-methoxypropanoyl)piperazin-1-yl)-5-(2-vinylquinoxalin-5-yl)nicotinonitrile]
2 | < 500 | < 500 | < 500 | COCCC(=O)N1CCN(c2nc(C3CC3)c(-c3cccc4cnccc34)c(C)c2C#N)C[C@H]1C [Compound 410, 6-cyclopropyl-5-(isoquinolin-5-yl)-2-((R)-4-(3-methoxypropanoyl)-3-methylpiperazin-1-yl)-4-methylnicotinonitrile]
3 | < 500 | < 500 | < 500 | COCCC(=O)N1CCN(c2nc(C3CC3)c(Oc3cc(Cl)ncn3)cc2C#N)C[C@H]1C [Compound 666, (R)-5-((6-chloropyrimidin-4-yl)oxy)-6-cyclopropyl-2-(4-(3-methoxypropanoyl)-3-methylpiperazin-1-yl)nicotinonitrile]
4 | 500 to 1000 | < 500 | 1000 to 10000 | COCCC(=O)N1CCN(c2nc(C3CC3)c(-c3cnnc(OS(=O)(=O)C(F)(F)F)c3)cc2C#N)C[C@H]1C1CC1 [Compound 675, (R)-5-(5-cyano-2-cyclopropyl-6-(3-cyclopropyl-4-(3-methoxypropanoyl)piperazin-1-yl)pyridin-3-yl)pyridazin-3-yl trifluoromethanesulfonate]
5 | < 500 | < 500 | < 500 | C=CC(=O)Nc1cccc(-c2cc(C#N)c(N3CCN(C(=O)C4CC4)[C@H](C4CC4)C3)nc2C2CC2)c1 [Compound 454, (R)—N-(3-(5-cyano-6-(4-(cyclopropanecarbonyl)-3-cyclopropylpiperazin-1-yl)-2-cyclopropylpyridin-3-yl)phenyl)acrylamide]
6 | < 500 | < 500 | < 500 | C=Cc1cc(Oc2cc(C#N)c(N3CCN(C(=O)CCO)[C@H](C4CC4)C3)nc2C2CC2)ccn1 [Compound 692, (R)-6-cyclopropyl-2-(3-cyclopropyl-4-(3-hydroxypropanoyl)piperazin-1-yl)-5-(2-vinylpyridin-4-yloxy)nicotinonitrile]
7 | 500 to 1000 | < 500 | 1000 to 10000 | COCCC(=O)N1CCN(c2nc(C3CC3)c(-c3ccc4oc(=O)[nH]c4c3)cc2C#N)C[C@H]1C [Compound 473, (R)-6-cyclopropyl-2-[4-(3-methoxy-propionyl)-3-methyl-piperazin-1-yl]-5-(2-oxo-2,3-dihydro-benzooxazol-5-yl)-nicotinonitrile]
8 | < 500 | < 500 | < 500 | N#Cc1cc(-c2ccnc(Br)c2)c(C2CC2)nc1N1CCN(C(=O)C2CC2)[C@H](C2CC2)C1 [Compound 508, (R)-2′-bromo-6-(4-(cyclopropanecarbonyl)-3-cyclopropylpiperazin-1-yl)-2-cyclopropyl-3,4′-bipyridine-5-carbonitrile]
9 | < 500 | < 500 | 500 to 1000 | COCCC(=O)N1CCN(c2nc(C3CC3)c(-c3cccnc3OC)c(C)c2C#N)C[C@H]1C [Compound 320, (R)-2-cyclopropyl-2′-methoxy-6-[4-(3-methoxy-propionyl)-3-methyl-piperazin-1-yl]-4-methyl-[3,3′]bipyridinyl-5-carbonitrile]
10 | 500 to 1000 | < 500 | 1000 to 10000 | CCOC(=O)N1CCN(c2cc(C#N)c(N3CCN(C(=O)CCOC)[C@H](C)C3)nc2C2CC2)CC1 [Compound 376, (R)-ethyl 4-(5-cyano-2-cyclopropyl-6-(4-(3-methoxypropanoyl)-3-methylpiperazin-1-yl)pyridin-3-yl)piperazine-1-carboxylate]
11 | 500 to 1000 | < 500 | 1000 to 10000 | COCCC(=O)N1CCN(c2nc(C3CC3)c(OCc3cccnc3)cc2C#N)C[C@H]1C [Compound 304, (R)-6-cyclopropyl-2-(4-(3-methoxypropanoyl)-3-methylpiperazin-1-yl)-5-(pyridin-3-ylmethoxy)nicotinonitrile]
